Laboratory results taken from ChEMBL document CHEMBL4184149, “Discovery and process development of a novel TACE inhibitor for the topical treatment of psoriasis” (Bioorg Med Chem, 2018).
In brackets after ≈: the same amount, converted by molar mass. Activity calls are given as the source filed them. The calls are words filed in the database; no cut-off is given here.

Columns and labels:
[1] = Solubility of the compound in propylene glycol/ethanol96 at 30 mg/ml after 24 hrs by UV-spectrometric analysis; format: physicochemical; details: for solubility at 24 h: propylene glycol/ethanol96; for solubility: 24 h
[2] = target: Disintegrin and metalloproteinase domain-containing protein 17 (Homo sapiens, UniProt P78536); assay: Inhibition of TACE in human PBMC assessed as reduction in LPS-induced TNFalpha production incubated overnight by HTRF assay; format: cell-based
Chain of Disintegrin and metalloproteinase domain-containing protein 17 (P78536 whole entry, the tested form may be a part): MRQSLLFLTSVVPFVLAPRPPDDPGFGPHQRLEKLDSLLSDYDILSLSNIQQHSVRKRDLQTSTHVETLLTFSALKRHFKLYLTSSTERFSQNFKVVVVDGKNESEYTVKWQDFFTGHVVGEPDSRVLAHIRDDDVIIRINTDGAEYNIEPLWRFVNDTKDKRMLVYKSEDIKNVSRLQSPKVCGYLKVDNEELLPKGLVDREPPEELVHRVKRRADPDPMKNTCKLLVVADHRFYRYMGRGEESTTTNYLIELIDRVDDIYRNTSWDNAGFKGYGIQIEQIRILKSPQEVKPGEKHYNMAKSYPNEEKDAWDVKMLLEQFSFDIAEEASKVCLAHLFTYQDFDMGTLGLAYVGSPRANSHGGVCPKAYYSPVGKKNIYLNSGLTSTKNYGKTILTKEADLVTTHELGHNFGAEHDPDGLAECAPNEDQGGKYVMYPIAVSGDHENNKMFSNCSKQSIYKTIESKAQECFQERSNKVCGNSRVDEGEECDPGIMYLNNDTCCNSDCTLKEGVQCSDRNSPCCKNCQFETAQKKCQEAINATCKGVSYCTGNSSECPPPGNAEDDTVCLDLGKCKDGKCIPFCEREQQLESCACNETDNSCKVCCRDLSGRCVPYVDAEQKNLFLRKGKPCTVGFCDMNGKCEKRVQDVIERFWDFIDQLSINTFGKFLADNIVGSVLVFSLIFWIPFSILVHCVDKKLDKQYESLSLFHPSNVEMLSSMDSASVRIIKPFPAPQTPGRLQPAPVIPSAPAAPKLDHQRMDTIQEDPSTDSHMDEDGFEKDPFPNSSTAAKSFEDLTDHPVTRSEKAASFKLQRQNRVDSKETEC

[3] = Half life in human neonatal keratinocytes at 1 uM by LC-MS/MS analysis; format: ADME, cell-based
[4] = Aqueous solubility of the compound in PBS at pH 7.4 at 20 degC after 24 hrs by HPLC analysis; format: physicochemical
TK6 [5] = assay: Genotoxicity in p53-competent human TK6 cells in presence of Sprague-Dawley rat S9 fraction by GADD45alpha GFP reporter assay; format: toxicity, cell-based
[6] = Stability of the compound in propylene glycol/ethanol96 at 0.1 mg/ml measured up to 3 months by HPLC analysis; format: physicochemical; details: read-out: Stability
TK6 [7] = assay: Genotoxicity in p53-competent human TK6 cells in absence of Sprague-Dawley rat S9 fraction by GADD45alpha GFP reporter assay; format: toxicity, cell-based
[8] = (§1) Intrinsic clearance in human hepatocytes assessed per million cells at 1 uM by LC-MS/MS analysis; format: ADME, cell-based, Hepatocyte; details: human hepatocytes, read-out: CLH
[9] = Stability of the compound in propylene glycol/ethanol96 assessed as parent compound remaining at 0.1 mg/ml after 1 month at 40 degC by HPLC analysis; format: physicochemical; details: read-out: Stability
[10] = Photoirritancy factor, ratio of EC50 for human neonatal keratinocytes under dark condition to EC50 for human neonatal keratinocytes under 5 J/cm2 UV light exposure; format: toxicity; details: read-out: Ratio EC50
Mus musculus = assay: Antiinflammatory activity in topically applied oxazolone-induced chronic skin inflammation hairless SKH1 mouse model assessed as decrease in skin lesions applied topically for 10 days in combination with oxazolone; format: functional, organism-based
Hepatocyte = assay: as §1; format: ADME, cell-based; details: hepatocytes, 1 µM

Structure (SMILES) | solubility at 24 h [1] [µM] | IC50 [2] [nM] | further results
Cc1cc(COc2ccc(S(=O)(=O)NC3(CC(=O)NO)CC3)cc2)c2ccccc2n1 | 1600 (≈ 706 µg/mL) | 84 | 
Cc1cc(COc2ccc(S(=O)(=O)NC[C@@H](C(=O)NO)N3CCCCC3)cc2)c2ccccc2n1 | 8000 (≈ 3990 µg/mL) |  | half-life at 1 µM [3]: > 24 h; solubility at 24 h [4]: < 1 µM; Activity (TK6 [5]): Non-Toxic; remaining at 0.1 mg/ml [6]: 89%; Activity (TK6 [7]): Non-Toxic; hepatocyte CLint at 1 µM [8]: 24 µL/min/1e6 cells
CC(=O)N1CC(CC(=O)NO)(NS(=O)(=O)c2ccc(SCc3cc(C)nc4ccccc34)cc2)C1 | 1000 (≈ 515 µg/mL) | 720 | 
Cc1cc(COc2ccc(S(=O)(=O)NC(C)(C)C(=O)NO)cc2)c2ccccc2n1 |  | 140 | 
Cc1cc(COc2ccc(S(=O)(=O)NCCC(=O)NO)cc2)c2ccccc2n1 | 4100 (≈ 1700 µg/mL) | 2300 | 
CC(=O)N1CC(CC(=O)NO)(NS(=O)(=O)c2ccc(Cc3cc(C)nc4ccccc34)cc2)C1 | 1900 (≈ 917 µg/mL) | 240 | 
CC(=O)N1CC(CC(=O)NO)(NS(=O)(=O)c2ccc(OCc3cc(C)nc4ccccc34)cc2C)C1 | 900 (≈ 461 µg/mL) | > 10000 | 
Cc1cc(COc2ccc(S(=O)(=O)N(C)C3(C(=O)NO)CN(CCC(F)(F)F)C3)cc2)c2ccccc2n1 |  |  | remaining at 730.5 h, 0.1 mg/ml [9]: 98%
Cc1cc(COc2ccc(S(=O)(=O)N(C(C)C)C3(C(=O)NO)CN(C(=O)C(C)C)C3)cc2)c2ccccc2n1 | 2200 (≈ 1220 µg/mL) | 790 | hepatocyte CLint at 1 µM [8]: 17 µL/min/1e6 cells
Cc1cc(COc2ccc(S(=O)(=O)NC3(C(=O)NO)CCCCC3)cc2)c2ccccc2n1 | 11000 (≈ 5170 µg/mL) | 100 | Activity (TK6 [5]): Non-Toxic; Activity (TK6 [7]): Non-Toxic
CC(=O)N1CC(CC(=O)NO)(NS(=O)(=O)c2ccc(OCc3cc(C)nc4ccccc34)c(C)c2)C1 | 400 (≈ 205 µg/mL) | > 10000 | 
Cc1cc(COc2ccc(S(=O)(=O)NCC(=O)NO)cc2)c2ccccc2n1 | 100 (≈ 40.1 µg/mL) | 82 | 
Cc1cc(COc2ccc(S(=O)(=O)NC3(C(=O)NO)CC3)cc2)c2ccccc2n1 | 46000 (≈ 19700 µg/mL) | 210 | Activity (TK6 [5]): Toxic; Activity (TK6 [7]): Toxic
CCCCC(=O)O[C@]1(C(=O)CO)[C@@H](C)C[C@H]2[C@@H]3CCC4=CC(=O)C=C[C@]4(C)[C@@]3(F)[C@@H](O)C[C@@]21C |  |  | Activity (Mus musculus): Active
CC(=O)N1CC(CC(=O)NO)(N(C)S(=O)(=O)c2ccc(OCc3cc(C)nc4ccccc34)cc2)C1 |  | 590 | 
CC#CCOc1ccc(S(=O)(=O)NC2(CC(=O)NO)CN(C(C)=O)C2)cc1 | 1800 (≈ 712 µg/mL) | 1300 | 
Cc1cc(COc2ccc(S(=O)(=O)NC3(C(=O)NO)CN(CCC(F)(F)F)C3)cc2)c2ccccc2n1 |  |  | remaining at 730.5 h, 0.1 mg/ml [9]: 58%

Further lines, with some results ahead:

solubility at 24 h [1] [µM] | IC50 [2] [nM] | Structure (SMILES) | further results
900 (≈ 487 µg/mL) | 6 | Cc1cc(COc2ccc(S(=O)(=O)NC3(CC(=O)NO)CN(C(=O)CC(C)C)C3)cc2)c2ccccc2n1 | hepatocyte CLint at 1 µM [8]: 13 µL/min/1e6 cells
3400 (≈ 1880 µg/mL) | 10 | Cc1cc(COc2ccc(S(=O)(=O)NC3(CC(=O)NO)CN(CCC(F)(F)F)C3)cc2)c2ccccc2n1 | remaining at 730.5 h, 0.1 mg/ml [9]: 88%
4900 (≈ 2510 µg/mL) | 12 | CCCCN1CC(CC(=O)NO)(NS(=O)(=O)c2ccc(OCc3cc(C)nc4ccccc34)cc2)C1 | remaining at 730.5 h, 0.1 mg/ml [9]: 72%; solubility at 24 h [4]: 70 µM (≈ 35.9 µg/mL)
59000 (≈ 30200 µg/mL) | 61 | CC(=O)N1CCC(NS(=O)(=O)c2ccc(OCc3cc(C)nc4ccccc34)cc2)(C(=O)NO)CC1 | Activity (TK6 [5]): Toxic; Activity (TK6 [7]): Toxic
 | 8 | Cc1cc(COc2ccc(S(=O)(=O)NC3(CC(=O)NO)CCN(C(=O)CC(C)C)C3)cc2)c2ccccc2n1 (stereo in doubt; 18g) | solubility [1]: 17000 µM (≈ 9430 µg/mL); Activity (TK6 [5]): Toxic; Activity (TK6 [7]): Toxic
3000 (≈ 1620 µg/mL) | 4 | CC(=O)N1CC2(C1)CC(CC(=O)NO)(NS(=O)(=O)c1ccc(OCc3cc(C)nc4ccccc34)cc1)C2 | 
800 (≈ 399 µg/mL) | 8 | CC(=O)N1CC(CC(=O)NO)(NS(=O)(=O)c2ccc(OCc3cc(C)nc4ccccc34)cc2)C1 | half-life at 1 µM [3]: > 24 h; solubility at 24 h [4]: < 0.5 µM; Activity (TK6 [5]): Non-Toxic; remaining at 0.1 mg/ml [6]: 98%; Activity (TK6 [7]): Non-Toxic; selectivity ratio [10]: 1; hepatocyte CLint at 1 µM [8]: < 5 µL/min/1e6 cells
 | 42 | Cc1cc(COc2ccc(S(=O)(=O)NC3(CC(=O)NO)CCN(C(=O)CC(C)C)C3)cc2)c2ccccc2n1 (stereo in doubt; 18h) | solubility [1]: 7900 µM (≈ 4380 µg/mL)
 | 30 | Cc1cc(COc2ccc(S(=O)(=O)NC3(C(=O)NO)CCC3)cc2)c2ccccc2n1 | Activity (TK6 [5]): Toxic; Activity (TK6 [7]): Toxic
5000 (≈ 2630 µg/mL) | 33 | Cc1cc(COc2ccc(S(=O)(=O)NC3(C(=O)NO)CN(C(=O)CC(C)C)C3)cc2)c2ccccc2n1 | hepatocyte CLint at 1 µM [8]: 6 µL/min/1e6 cells
 | 61 | CC(=O)N1CC(CC(=O)NO)(NS(=O)(=O)c2ccc(OCc3cc(C)nc4c(F)cccc34)cc2)C1 | 
44000 (≈ 23800 µg/mL) | 37 | CCN(C1(C(=O)NO)CN(C(=O)C(C)C)C1)S(=O)(=O)c1ccc(OCc2cc(C)nc3ccccc23)cc1 | hepatocyte CLint at 1 µM [8]: 11 µL/min/1e6 cells
11000 (≈ 6270 µg/mL) | 4.6 | Cc1cc(COc2ccc(S(=O)(=O)NC3(CC(=O)NO)CN(C(=O)C(C)(C)N(C)C)C3)cc2)c2ccccc2n1 | Activity (TK6 [5]): Non-Toxic; Activity (TK6 [7]): Non-Toxic; Stability (Hepatocyte): Unstable
200 (≈ 91.1 µg/mL) | 68 | Cc1cc(COc2ccc(S(=O)(=O)NC3(C(=O)NO)CCCC3)cc2)c2ccccc2n1 | 
8900 (≈ 5080 µg/mL) | 31 | COCCN(C1(C(=O)NO)CN(C(=O)C(C)C)C1)S(=O)(=O)c1ccc(OCc2cc(C)nc3ccccc23)cc1 | hepatocyte CLint at 1 µM [8]: 18 µL/min/1e6 cells
400 (≈ 205 µg/mL) | 27 | CCc1cc(COc2ccc(S(=O)(=O)NC3(CC(=O)NO)CN(C(C)=O)C3)cc2)c2ccccc2n1 | 
 | 13 | Cc1cc(COc2ccc(S(=O)(=O)NC3(CC(=O)NO)CCC3)cc2)c2ccccc2n1 | 
200 (≈ 91.5 µg/mL) | 10 | Cc1cc(COc2ccc(S(=O)(=O)NC3(CC(=O)NO)COC3)cc2)c2ccccc2n1 | 
500 (≈ 284 µg/mL) | 5 | Cc1cc(COc2ccc(S(=O)(=O)NC3(CC(=O)NO)CN(C(=O)N4CCCCC4)C3)cc2)c2ccccc2n1 | solubility at 24 h [4]: 80 µM (≈ 45.4 µg/mL)
1100 (≈ 597 µg/mL) | 6 | Cc1cc(COc2ccc(S(=O)(=O)NC3(CC(=O)NO)CN(C(=O)OC(C)C)C3)cc2)c2ccccc2n1 | solubility at 24 h [4]: 80 µM (≈ 43.4 µg/mL)
1600 (≈ 710 µg/mL) | 43 | Cc1cc(COc2ccc(S(=O)(=O)NC(C)(C)CC(=O)NO)cc2)c2ccccc2n1 | 
17000 (≈ 8710 µg/mL) | 16 | Cc1cc(COc2ccc(S(=O)(=O)NC3(C(=O)NO)CN(C(=O)C(C)C)C3)cc2)c2ccccc2n1 | Activity (TK6 [5]): Non-Toxic; Activity (TK6 [7]): Non-Toxic; hepatocyte CLint at 1 µM [8]: < 5 µL/min/1e6 cells
17000 (≈ 8920 µg/mL) | 36 | CC(=O)N1CC2(C1)CC(NS(=O)(=O)c1ccc(OCc3cc(C)nc4ccccc34)cc1)(C(=O)NO)C2 | half-life at 1 µM [3]: > 24 h; solubility at 24 h [4]: 84 µM (≈ 44.1 µg/mL); Activity (TK6 [5]): Toxic; remaining at 0.1 mg/ml [6]: 95%; Activity (TK6 [7]): Toxic; hepatocyte CLint at 1 µM [8]: < 5 µL/min/1e6 cells
